Measurements published in ChEMBL document CHEMBL5465560, “Selectivity Literature for EUbOPEN Chemogenomic Library” (2024).

Assays:
[1] = target: MAP kinase-activated protein kinase 3 (Homo sapiens) (UniProt Q16644); experiment: Selectivity interaction (Kinase panel (KiNativ target engagement assay in Jurkat cells)) EUB0001635a MAPKAPK3; type: cell-based; settings: Selectivity number of off-targets 0.0, Selectivity number of targets 233.0, Source Knowledge https://www.sciencedirect.com/science/article/pii/S2451945619300674?via%3Dihub, at 1 µM
[2] = target: Histone acetyltransferase KAT2A (Homo sapiens) (UniProt Q92830); experiment: Selectivity interaction (Human bromodomain panel (DSF assay)) EUB0000233b KAT2A
[3] = target: MAP/microtubule affinity-regulating kinase 3 (Homo sapiens) (UniProt P27448); experiment: Selectivity interaction (KinomeScan (DiscoverX)) EUB0000229b MARK3; settings: at 10 µM
[4] = target: NT-3 growth factor receptor (Homo sapiens, UniProt Q16288); experiment: Selectivity interaction (KinomeScan (DiscoverX)) EUB0000229b NTRK3; settings: at 10 µM
[5] = target: Tyrosine-protein kinase Fer (Homo sapiens) (UniProt P16591); experiment: Selectivity interaction (KinomeScan (DiscoverX)) EUB0000595a FER; settings: at 10 µM
[6] = target: Wee1-like protein kinase (Homo sapiens) (UniProt P30291); experiment: Selectivity interaction (LanthaScreen Eu Kinase Binding Assay) EUB0001632a WEE1; settings: at 10 µM
[7] = target: AMPK alpha2/beta2/gamma1 (Homo sapiens) (UniProt P54646+O43741+P54619); experiment: (§1) Selectivity interaction (LanthaScreen Eu Kinase Binding Assay) EUB0001632a […]; type: protein-complex assay; settings: at 10 µM
[8] = target: AMP-activated protein kinase alpha-2/beta-2/gamma-2 (Homo sapiens) (UniProt P54646+O43741+Q9UGJ0); experiment: as §1; type: protein-complex assay; settings: at 10 µM
[9] = target: AMPK alpha1/beta1/gamma2 (Homo sapiens) (UniProt Q9UGJ0+Q9Y478+Q13131); experiment: as §1; type: protein-complex assay; settings: at 10 µM
[10] = target: AMPK alpha1/beta1/gamma3 (Homo sapiens) (UniProt Q9Y478+Q13131+Q9UGI9); experiment: as §1; type: protein-complex assay; settings: at 10 µM
[11] = target: AMPK alpha1/beta2/gamma1 (Homo sapiens) (UniProt O43741+P54619+Q13131); experiment: as §1; type: protein-complex assay; settings: at 10 µM
[12] = target: Cyclin-dependent kinase 13 (Homo sapiens, UniProt Q14004); settings: at 10 µM
[13] = target: Calcium/calmodulin-dependent protein kinase type II subunit alpha (Homo sapiens, UniProt Q9UQM7); settings: at 10 µM
Aurora kinase B = Aurora kinase B (Homo sapiens, UniProt Q96GD4); experiment: Selectivity interaction (Kinase panel (Invitrogen, enzymatic assay)) EUB0000162b AURKB
[14] = target: CDK6/Cyclin D (Homo sapiens) (UniProt P24385+P30281+Q00534+P30279); experiment: Selectivity interaction (Upstate Kinase Profiler service (Millipore)) EUB0000056c CDK6; type: protein-complex assay; settings: at 1 µM
[15] = target: Mitotic checkpoint serine/threonine-protein kinase BUB1 (Homo sapiens, UniProt O43683)
[16] = target: Glycogen synthase kinase-3 beta (Homo sapiens, UniProt P49841); experiment: Selectivity interaction (ActivX KiNativ screen (ex vivo kinase selectivity in human PBMCs)) EUB0001619a GSK3B; type: cell-based; settings: PBMC, at 1 µM
[17] = target: Calcium/calmodulin-dependent protein kinase type II subunit beta (Homo sapiens) (UniProt Q13554); experiment: Selectivity interaction (KinomeScan (DiscoverX)) EUB0000607a CAMK2B; settings: at 10 µM
[18] = target: T1, Mitogen-activated protein kinase 12 (Homo sapiens) (UniProt P53778); experiment: Selectivity interaction (ActivX KiNativ screen (kinase selectivity in THP-1 cell lysates)) EUB0000639a MAPK12; type: subcellular; settings: lysate
T1 sequence (whole entry): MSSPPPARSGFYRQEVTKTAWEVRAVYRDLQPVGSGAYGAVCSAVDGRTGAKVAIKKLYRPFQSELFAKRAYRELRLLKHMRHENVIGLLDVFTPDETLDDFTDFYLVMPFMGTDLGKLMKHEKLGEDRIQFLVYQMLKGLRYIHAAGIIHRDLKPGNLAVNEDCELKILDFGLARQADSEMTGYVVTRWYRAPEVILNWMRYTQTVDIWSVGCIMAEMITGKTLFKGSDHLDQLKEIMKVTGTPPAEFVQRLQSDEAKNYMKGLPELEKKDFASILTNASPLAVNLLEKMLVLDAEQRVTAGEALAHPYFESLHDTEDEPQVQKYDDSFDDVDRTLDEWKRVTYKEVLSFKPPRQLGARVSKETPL

[19] = target: Calcium/calmodulin-dependent protein kinase type 1D (Homo sapiens) (UniProt Q8IU85); experiment: Selectivity interaction (ActivX KiNativ screen (kinase selectivity in THP-1 cell lysates)) EUB0000639a CAMK1D; type: subcellular; settings: lysate, at 1 µM
[20] = target: T2, Rhodopsin kinase GRK7 (Homo sapiens) (UniProt Q8WTQ7); experiment: Selectivity interaction (Kinase panel (Invitrogen)) EUB0000639a GRK7; settings: at 200 nM
T2 sequence (whole entry): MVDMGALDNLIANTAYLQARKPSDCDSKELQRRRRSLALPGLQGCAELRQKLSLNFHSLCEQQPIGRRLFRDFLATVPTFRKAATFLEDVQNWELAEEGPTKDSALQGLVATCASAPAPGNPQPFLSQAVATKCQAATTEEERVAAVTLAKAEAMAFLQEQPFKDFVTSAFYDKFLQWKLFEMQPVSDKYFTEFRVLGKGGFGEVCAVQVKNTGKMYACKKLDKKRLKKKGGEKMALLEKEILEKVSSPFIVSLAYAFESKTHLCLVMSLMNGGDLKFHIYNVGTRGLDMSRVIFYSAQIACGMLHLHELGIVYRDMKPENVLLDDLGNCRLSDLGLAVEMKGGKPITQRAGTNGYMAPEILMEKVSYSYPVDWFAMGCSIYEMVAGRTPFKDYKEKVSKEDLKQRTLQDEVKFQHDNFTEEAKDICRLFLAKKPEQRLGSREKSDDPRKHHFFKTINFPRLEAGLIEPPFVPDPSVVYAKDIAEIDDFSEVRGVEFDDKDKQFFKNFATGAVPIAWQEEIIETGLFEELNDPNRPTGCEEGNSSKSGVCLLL

[21] = target: Ribosomal protein S6 kinase alpha-5 (Homo sapiens) (UniProt O75582); settings: at 10 µM
Activated CDC42 kinase 1 = Activated CDC42 kinase 1 (Homo sapiens, UniProt Q07912); settings: at 10 µM
Sequence of Activated CDC42 kinase 1 (Q07912 whole entry, looked up): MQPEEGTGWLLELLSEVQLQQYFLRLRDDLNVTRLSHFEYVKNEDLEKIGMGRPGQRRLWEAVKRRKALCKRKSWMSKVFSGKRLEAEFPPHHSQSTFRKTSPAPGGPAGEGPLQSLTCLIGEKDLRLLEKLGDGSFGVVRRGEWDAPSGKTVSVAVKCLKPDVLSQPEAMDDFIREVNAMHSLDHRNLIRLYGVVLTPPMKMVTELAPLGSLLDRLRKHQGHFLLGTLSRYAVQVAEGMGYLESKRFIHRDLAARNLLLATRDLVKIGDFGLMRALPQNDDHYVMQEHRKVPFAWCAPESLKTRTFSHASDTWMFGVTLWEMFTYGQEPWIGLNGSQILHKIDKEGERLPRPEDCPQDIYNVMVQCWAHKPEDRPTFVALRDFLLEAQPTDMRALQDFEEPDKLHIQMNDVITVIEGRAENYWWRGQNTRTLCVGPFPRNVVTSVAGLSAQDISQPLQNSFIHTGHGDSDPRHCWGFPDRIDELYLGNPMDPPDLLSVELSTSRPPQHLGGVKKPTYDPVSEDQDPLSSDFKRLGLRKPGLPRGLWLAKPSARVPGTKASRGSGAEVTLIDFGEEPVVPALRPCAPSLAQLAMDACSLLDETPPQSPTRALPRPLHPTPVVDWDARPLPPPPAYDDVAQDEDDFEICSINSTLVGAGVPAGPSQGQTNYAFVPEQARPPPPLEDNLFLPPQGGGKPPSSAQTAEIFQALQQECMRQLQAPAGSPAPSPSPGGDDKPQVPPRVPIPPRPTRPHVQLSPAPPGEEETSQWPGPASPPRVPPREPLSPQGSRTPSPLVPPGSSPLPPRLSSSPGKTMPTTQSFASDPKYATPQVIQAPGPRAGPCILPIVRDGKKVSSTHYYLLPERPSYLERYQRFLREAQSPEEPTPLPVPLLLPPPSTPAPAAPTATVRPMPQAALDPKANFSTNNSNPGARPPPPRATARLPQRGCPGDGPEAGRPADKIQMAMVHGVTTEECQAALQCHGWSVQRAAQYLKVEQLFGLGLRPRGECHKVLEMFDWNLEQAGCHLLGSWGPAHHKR

Sequence of Aurora kinase B (Q96GD4 whole entry): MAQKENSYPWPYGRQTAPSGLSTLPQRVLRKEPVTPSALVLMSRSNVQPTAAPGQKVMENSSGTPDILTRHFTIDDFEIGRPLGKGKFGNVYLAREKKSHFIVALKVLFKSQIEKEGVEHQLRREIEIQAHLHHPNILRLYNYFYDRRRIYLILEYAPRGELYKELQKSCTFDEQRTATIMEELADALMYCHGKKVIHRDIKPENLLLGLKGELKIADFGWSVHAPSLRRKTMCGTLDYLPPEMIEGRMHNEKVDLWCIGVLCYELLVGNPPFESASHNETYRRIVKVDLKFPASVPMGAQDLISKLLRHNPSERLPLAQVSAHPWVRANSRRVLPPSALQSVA
Sequence of NT-3 growth factor receptor (Q16288 32-839 limits assumed): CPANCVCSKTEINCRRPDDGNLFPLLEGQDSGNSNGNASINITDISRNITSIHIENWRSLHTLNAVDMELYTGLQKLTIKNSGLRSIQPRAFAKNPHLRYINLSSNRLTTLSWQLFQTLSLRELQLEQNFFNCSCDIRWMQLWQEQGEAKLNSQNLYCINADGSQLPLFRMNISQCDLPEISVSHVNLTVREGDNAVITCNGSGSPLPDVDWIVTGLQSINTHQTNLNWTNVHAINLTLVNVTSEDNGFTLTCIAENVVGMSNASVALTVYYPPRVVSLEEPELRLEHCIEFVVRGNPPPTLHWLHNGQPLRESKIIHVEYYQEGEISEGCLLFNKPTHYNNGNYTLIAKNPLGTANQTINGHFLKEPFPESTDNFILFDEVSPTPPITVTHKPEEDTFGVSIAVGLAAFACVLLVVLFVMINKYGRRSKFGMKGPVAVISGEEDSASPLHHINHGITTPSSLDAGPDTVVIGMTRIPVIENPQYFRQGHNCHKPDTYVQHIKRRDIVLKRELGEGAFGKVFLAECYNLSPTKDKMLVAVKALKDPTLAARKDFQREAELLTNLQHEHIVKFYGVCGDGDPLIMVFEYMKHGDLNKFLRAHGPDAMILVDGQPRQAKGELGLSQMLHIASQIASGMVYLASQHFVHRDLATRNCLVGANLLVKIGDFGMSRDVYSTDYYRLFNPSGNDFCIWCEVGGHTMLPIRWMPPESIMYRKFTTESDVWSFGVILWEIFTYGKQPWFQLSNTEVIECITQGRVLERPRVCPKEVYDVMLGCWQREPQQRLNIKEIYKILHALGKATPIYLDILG
Sequence of AMPK alpha1/beta1/gamma3 (Homo sapiens) (Q13131 whole entry partner): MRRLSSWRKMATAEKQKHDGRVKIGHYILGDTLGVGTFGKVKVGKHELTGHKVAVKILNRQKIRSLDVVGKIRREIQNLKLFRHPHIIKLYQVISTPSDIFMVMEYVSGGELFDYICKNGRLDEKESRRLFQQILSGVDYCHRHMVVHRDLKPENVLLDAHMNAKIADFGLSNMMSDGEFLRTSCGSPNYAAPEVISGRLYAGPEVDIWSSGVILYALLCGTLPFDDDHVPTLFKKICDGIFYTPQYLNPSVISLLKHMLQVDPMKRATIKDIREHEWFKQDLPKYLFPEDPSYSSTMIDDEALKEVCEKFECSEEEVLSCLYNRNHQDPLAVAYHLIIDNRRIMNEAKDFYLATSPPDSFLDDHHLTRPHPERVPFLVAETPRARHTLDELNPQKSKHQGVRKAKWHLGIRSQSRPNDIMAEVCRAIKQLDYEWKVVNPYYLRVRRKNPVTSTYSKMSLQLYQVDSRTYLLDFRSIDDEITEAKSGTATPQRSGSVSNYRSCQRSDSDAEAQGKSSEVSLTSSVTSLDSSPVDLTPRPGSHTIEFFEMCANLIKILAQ
Sequence of AMPK alpha1/beta1/gamma3 (Homo sapiens) (Q9UGI9 whole entry partner): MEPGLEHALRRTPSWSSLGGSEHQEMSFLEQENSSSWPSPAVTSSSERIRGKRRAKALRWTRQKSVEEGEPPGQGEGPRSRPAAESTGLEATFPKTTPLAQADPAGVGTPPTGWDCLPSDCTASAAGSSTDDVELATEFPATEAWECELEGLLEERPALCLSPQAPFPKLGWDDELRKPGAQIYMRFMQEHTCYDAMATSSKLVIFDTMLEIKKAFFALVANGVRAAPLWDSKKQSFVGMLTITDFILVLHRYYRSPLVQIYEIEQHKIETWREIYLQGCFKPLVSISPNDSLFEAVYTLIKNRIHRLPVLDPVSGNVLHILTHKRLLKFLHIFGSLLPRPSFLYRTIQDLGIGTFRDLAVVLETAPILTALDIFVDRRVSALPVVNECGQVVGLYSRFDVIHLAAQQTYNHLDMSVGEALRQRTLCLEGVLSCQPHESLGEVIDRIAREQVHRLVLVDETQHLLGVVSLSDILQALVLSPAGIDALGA
Sequence of AMPK alpha1/beta1/gamma3 (Homo sapiens) (Q9Y478 2-270 limits assumed): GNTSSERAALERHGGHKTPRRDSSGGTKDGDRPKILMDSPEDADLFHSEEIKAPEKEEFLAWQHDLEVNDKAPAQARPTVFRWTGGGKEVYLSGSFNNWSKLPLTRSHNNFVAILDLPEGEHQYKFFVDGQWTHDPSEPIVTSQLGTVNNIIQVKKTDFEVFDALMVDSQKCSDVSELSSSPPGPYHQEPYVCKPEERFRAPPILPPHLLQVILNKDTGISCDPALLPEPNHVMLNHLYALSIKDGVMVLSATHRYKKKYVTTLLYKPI
Sequence of AMPK alpha1/beta1/gamma2 (Homo sapiens) (Q13131 whole entry partner): as the sequence (Q13131 whole entry partner) above
Sequence of AMPK alpha1/beta1/gamma2 (Homo sapiens) (Q9UGJ0 whole entry): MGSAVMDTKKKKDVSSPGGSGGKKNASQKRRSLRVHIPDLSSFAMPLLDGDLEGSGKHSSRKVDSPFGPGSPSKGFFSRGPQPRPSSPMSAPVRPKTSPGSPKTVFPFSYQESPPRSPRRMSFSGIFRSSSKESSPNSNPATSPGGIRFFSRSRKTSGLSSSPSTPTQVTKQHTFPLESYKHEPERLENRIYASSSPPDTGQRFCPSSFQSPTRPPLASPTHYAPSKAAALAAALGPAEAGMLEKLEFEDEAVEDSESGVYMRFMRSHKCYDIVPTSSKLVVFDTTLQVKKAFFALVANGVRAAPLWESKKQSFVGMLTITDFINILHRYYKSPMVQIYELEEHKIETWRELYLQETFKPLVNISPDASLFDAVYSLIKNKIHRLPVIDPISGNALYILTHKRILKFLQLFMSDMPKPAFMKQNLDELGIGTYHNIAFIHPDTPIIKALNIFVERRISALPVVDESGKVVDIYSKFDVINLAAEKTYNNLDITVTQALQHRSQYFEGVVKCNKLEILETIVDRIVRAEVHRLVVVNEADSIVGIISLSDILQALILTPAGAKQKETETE
Sequence of AMPK alpha1/beta1/gamma2 (Homo sapiens) (Q9Y478 2-270 partner limits assumed): as the sequence (Q9Y478 2-270 limits assumed) above
Sequence of Wee1-like protein kinase (Homo sapiens) (P30291 whole entry, looked up): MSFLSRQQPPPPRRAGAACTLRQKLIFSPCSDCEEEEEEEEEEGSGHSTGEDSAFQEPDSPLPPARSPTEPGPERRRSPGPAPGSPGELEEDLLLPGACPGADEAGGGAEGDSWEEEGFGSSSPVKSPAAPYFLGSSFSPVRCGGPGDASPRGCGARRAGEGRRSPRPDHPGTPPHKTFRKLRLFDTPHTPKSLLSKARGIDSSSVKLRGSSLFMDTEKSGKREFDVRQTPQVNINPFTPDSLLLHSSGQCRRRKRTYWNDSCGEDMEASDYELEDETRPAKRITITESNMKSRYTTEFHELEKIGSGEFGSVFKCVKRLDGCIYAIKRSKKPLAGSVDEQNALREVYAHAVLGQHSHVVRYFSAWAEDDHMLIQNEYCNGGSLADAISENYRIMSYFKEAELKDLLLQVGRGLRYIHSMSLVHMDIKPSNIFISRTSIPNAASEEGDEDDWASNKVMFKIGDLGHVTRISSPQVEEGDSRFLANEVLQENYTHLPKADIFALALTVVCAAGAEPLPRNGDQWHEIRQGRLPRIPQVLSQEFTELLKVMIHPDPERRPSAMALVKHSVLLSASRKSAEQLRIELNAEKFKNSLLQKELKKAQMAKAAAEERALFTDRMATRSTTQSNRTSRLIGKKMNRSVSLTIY

`C=CC(=O)Nc1ccc(C(=O)Nc2[nH]nc3c2CN(C(=O)N[C@H](CN(C)C)c2ccccc2)C3(C)C)cc1` gave a % of engagement [1] of -9.9%.
With `CN(C)CCCOc1ccc(-c2cc(NCCCn3cccn3)nc(S(C)(=O)=O)n2)cc1` the dTM [2] was < 2 K.
Work on `COc1cc(N(C)c2ccnc3ccc(C(F)(F)F)cc23)cc(OC)c1OC` yielded a % binding [3] of 100% and a % binding [4] of 100%.
Work on `COCC(=O)NC/C=C/c1ccc2ncnc(Nc3ccc(Oc4ccc(C)nc4)c(C)c3)c2c1` [CP-724714] yielded a % of control [5] of 100%.
`Cn1cc(-n2cnc3c(NCc4nc5cc(Cl)c(Cl)cc5[nH]4)nc(N4CCOCC4)nc32)cn1` gave a % of inhibition [6] of -20.9%, a % of inhibition [7] of -4.3% and a % of inhibition [8] of 1.19%. The % of inhibition [9] was 0.872%, the % of inhibition [10] was 2.78% and the % of inhibition [11] was -9.67%.
`Cc1cc([C@@H](C)Nc2ccccc2C(=O)O)c2nc(N3CCOCC3)cc(=O)n2c1` [AZD-6482] gave a % of control [12] of 88% and a % of control [13] of 75%.
With `CN(C)C(=O)Cn1cc(-c2ccc(-c3cncc4ccccc34)cc2)cn1` the IC50 (Aurora kinase B) was 809 nM.
`Cc1ccc(-c2ccc3c(ccc4sc5c(c43)NC[C@@H](C)NC5=O)n2)cn1` showed a % of inhibition [14] of 5%.
For `CCc1cccc(CC)c1NC(=O)c1nn(C)c2c1CCc1cnc(Nc3ccc(C(=O)NC4CCN(C)CC4)cc3OC(F)(F)F)nc1-2`, the IC50 [15] was > 10000 nM.
`N#Cc1cccc(-c2c[nH]c3ncnc(N4CCOCC4)c23)c1` was tested, and the % of inhibition [16] was 7%.
With `CNC(=O)Nc1ccc(-c2nc(N3CC4CCC(C3)O4)c3cnn(C4CCC5(CC4)OCCO5)c3n2)cc1` the % of control [17] was 100%.
Work on `CC[C@@H]1[C@H](F)C(=O)N[C@@H]1COc1nccc2cc(C(N)=O)c(OC)cc12` [ZIMLOVISERTIB] yielded a % of inhibition ([18]; at 0.01 µM) of -4.4%, a % of inhibition ([18]; at 0.04 µM) of 6% and a % of inhibition ([18]; at 0.2 µM) of -3.6%. It also gave a % of inhibition ([18]; at 1 µM) of 7.4%, a % of inhibition ([18]; at 5 µM) of 20.3% and a % of inhibition [19] of -1.2%. The % of inhibition [20] was 1.87%.
`CCN(CC)CCCCNc1ncc2cc(-c3cc(OC)cc(OC)c3)c(NC(=O)NC(C)(C)C)nc2n1` was tested, and the % of control [21] was 100% and the % of control (Activated CDC42 kinase 1) was 100%.
